# According to patent US20260216348A1, “IRAK DEGRADATION AGENT AND USE THEREOF” (Increland, priority 2023, published 2026):
# Experiments:
# [1] = tested on: R848-induced IL-6 secretion in human peripheral blood mononuclear cells (PBMCs); test: Inhibition of R848-induced IL-6 secretion in human PBMCs (IL-6 ELISA); type: cell-based; conditions: PBMC, R848 2.5 μg/mL, 20 h pre-incubation, 24 h stimulation
# Procedure, shortened: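 Human PBMCs at 1.25×10^6 cells/mL were preincubated for 20 h at 37 °C with compound, starting at 1 μM in 4-fold dilutions. They were then stimulated with 2.5 μg/mL R848 for 24 h. Supernatant IL-6 was measured by ELISA at OD450 against a standard curve.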
# [2] = Pharmacokinetic experiment on SD rats (iv and intragastric); type: in vivo; conditions: Sprague-Dawley, rat, plasma, po; for bioavailability: ig 10.00 mg/kg vs iv 1.00 mg/kg, read-out: Oral bioavailability Fobs; for AUC / AUC(0-inf) / Cmax: ig, 10.00 mg/kg; for Cmax: read-out: Peak plasma concentration Cmax
# [3] = tested on: LPS/IL-1β-induced IL-6 secretion in human peripheral blood mononuclear cells (PBMCs); test: Inhibition of LPS/IL-1β-induced IL-6 secretion in human PBMCs (IL-6 ELISA); type: cell-based; conditions: PBMC, LPS 10 ng/mL + IL-1β 20 ng/mL, 24 h pre-incubation, 20 h stimulation
# Procedure, shortened: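 IC50 values come from fitted curves of IL-6 levels, determined by ELISA (OD450, standard curve) in supernatants diluted 200-fold. Human PBMCs received 5-fold serial compound dilutions (top 1 μM) for 24 h before a 20 h challenge with final 10 ng/mL LPS and 20 ng/mL IL-1β, 37 °C, 5% CO2.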
# [4] = Metabolic stability in human liver microsome; type: in vitro ADME; conditions: liver microsomes, NADPH, 60 min, read-out: Human liver microsome (t1/2, min)
# Method: Clean incubation plates T60 and NCF60 were preheated at 37° C. for 10 min. Liver microsomes were diluted to a concentration of 0.56 mg/mL with 100 mM phosphate buffer, and 445 μL of the microsome working solution (0.56 mg/mL) was transferred to the preheated incubation plates T60 and NCF60, followed by incubation of the plates T60 and NCF60 with continuous shaking at 37° C. for 10 min. After incubation, 54 μL of liver microsomes were transferred to a blank plate, 6 μL of NAPDH cofactor was added to the blank plate, and then 180 μL of quenching solution was added to the blank plate. 5 μL of the compound working solution (100 μM) was added to the microsome-containing incubation plates T60 and NCF60, and mixed thoroughly 3 times. For plate NCF60, 50 μL of buffer was added and the system was mixed thoroughly 3 times before timing was started, and the plate was incubated with shaking at 37° C. for 60 min. For the quenching plate, 180 μL of quenching solution and 6 μL of NADPH cofactor were added, and the plate was ensured to be cooled to prevent evaporation. For the T60 plate, the mixture was thoroughly mixed 3 times, and 54 μL of the mixture was immediately transferred to the quenching plate at the time point of 0 min. Then 44 μL of the NAPDH cofactor was added to the incubation plate (T60). Timing was started, and the plate was incubated with shaking at 37° C. for 60 min. At the time points of 5, 15, 30, 45, and 60 min, 180 μL of the quenching solution was added to the quenching plate respectively, mixed once, and 60 μL of sample was continuously transferred from the plate T60 to the quenching plate at each time point. For plate NCF60, after mixing once, 60 μL of the sample was transferred from incubation plate NCF60 to the quenching plate containing quenching solution at the 60-min time point. All sampling plates were shaken for 10 min, then centrifuged at 4000 rpm at 4° C. for 20 min. 80 μL of the supernatant was transferred to 240 μL of HPLC water, and mixed using a plate shaker for 10 min. Each bioanalytical plate was sealed and shaken for 10 min before LC-MS/MS analysis.
Compound,IC50 [1] [nM],bioavailability [2] [%],AUC [2] [ng·h/mL],AUC(0-inf) [2] [ng·h/mL],Cmax [2] [ng/mL],IC50 [3] [nM],half-life at 1 µM [4] [min]
CN(C)c1cc2nn([C@H]3CC[C@H](CN4CCC(n5cc6c(F)cc(N7CCC(=O)NC7=O)cc6n5)CC4)CC3)cc2cc1NC(=O)c1cnn2cccnc12 [TM-174],3.19,24.5,3630 ± 1500,4160 ± 1440,356 ± 201,1.49,
CN(C)c1cc2nn([C@H]3CC[C@H](CN4C[C@@H](F)[C@@H](n5cc6cc(C7CCC(=O)NC7=O)c(F)cc6n5)C4)CC3)cc2cc1NC(=O)c1cnn2cccnc12 (stereo partly shown) [TM-240],2.68,29.9,7990 ± 3140,7990 ± 3120,976 ± 545,1.09,98.6
CN(C)c1cc2nn([C@H]3CC[C@H](CN4C[C@@H](F)[C@H](n5cc6cc(C7CCC(=O)NC7=O)c(F)cc6n5)C4)CC3)cc2cc1NC(=O)c1cnn2cccnc12 (stereo partly shown) [TM-245],4.02,63.7,14500 ± 1420,19000 ± 5060,1190 ± 92.3,2.58,87.4
CN(C)c1cc2nn([C@H]3CC[C@H](CN4C[C@@H](n5cc6cc(N7CCC(=O)NC7=O)ccc6n5)[C@@H](F)C4)CC3)cc2cc1NC(=O)c1cnn2cccnc12 [TM-205],3.78,,,,,2.47,
CN(C)c1cc2nn([C@H]3CC[C@H](CN4CC[C@@H](n5cc6cc(C7CCC(=O)NC7=O)c(F)cc6n5)[C@@H](F)C4)CC3)cc2cc1NC(=O)c1cnn2cccnc12 (stereo partly shown) [TM-135],4.53,,,,,2.66,65
CN(C)c1cc2nn([C@H]3CC[C@H](CN4C[C@@H](F)[C@H](n5cc6cc(C7CCC(=O)NC7=O)ccc6n5)C4)CC3)cc2cc1NC(=O)c1cnn2cccnc12 (stereo partly shown) [TM-244],14.4,54.2,13000 ± 2900,13200 ± 2960,1330 ± 294,4.95,79.5
CN(C)c1cc2nn([C@H]3CC[C@H](CN4C[C@@H](n5cc6cc(C7CCC(=O)NC7=O)c(F)cc6n5)[C@@H](F)C4)CC3)cc2cc1NC(=O)c1cnn2cccnc12 (stereo partly shown) [TM-241],9.08,35.2,14200 ± 4660,14900 ± 4690,1650 ± 641,6.35,106
CN(C)c1cc2nn([C@H]3CC[C@H](CN4C[C@H](F)[C@@H](n5cc6cc(C7CCC(=O)NC7=O)c(F)cc6n5)C4)CC3)cc2cc1NC(=O)c1cnn2cccnc12 (stereo partly shown) [TM-249],4.37,38.8,8610 ± 4000,9310 ± 4680,814 ± 187,3.08,139
